In brackets after ≈: the same amount, converted by molar mass.
How the values were obtained:
Format in all cases: functional
Staphylococcus aureus = experiment: Minimum inhibitory concentration against Staphylococcus aureus / Homo MR
Haemophilus influenzae = experiment: Minimum inhibitory concentration against Haemophilus influenzae / Pen+
Streptococcus pneumoniae = experiment: Minimum inhibitory concentration against Streptococcus pneumoniae / Penicillin Resistant
Moraxella catarrhalis = experiment: Minimum inhibitory concentration against Moraxella catarrhalis / Pen+

| Structure (SMILES) | MIC (Staphylococcus aureus) | MIC (Haemophilus influenzae) | MIC (Streptococcus pneumoniae) | MIC (Moraxella catarrhalis) |
| --- | --- | --- | --- | --- |
| C=C[C@]1(C)C[C@@H](OC(=O)Nc2ccc(OC)cc2)[C@]2(C)C(C)CC[C@]3(CCC(=O)[C@H]32)[C@@H](C)[C@@H]1O (stereo partly drawn) | 0.003 µg/mL (≈ 0.00639 µM) | 4 µg/mL (≈ 8.52 µM) | 0.003 µg/mL (≈ 0.00639 µM) | 0.125 µg/mL (≈ 0.266 µM) |
| C=C[C@]1(C)C[C@@H](OC(=O)Nc2ccc(OC)cc2)[C@]2(C)C(C)CC(=O)[C@]3(CCC(=O)[C@H]32)[C@@H](C)[C@@H]1O (stereo partly drawn) | 32 µg/mL (≈ 66.2 µM) | 64 µg/mL (≈ 132 µM) | 32 µg/mL (≈ 66.2 µM) | 64 µg/mL (≈ 132 µM) |

Source: ChEMBL document CHEMBL1136391, “Synthesis and activity of a C-8 keto pleuromutilin derivative” (2003)
